Experimental data as given in patent publication US8440649B2 (priority 2009, dated 2013).

Experiments:
SARS CoV [1] = conditions: Vero E6 cells
SARS CoV [2] = assay: microbe, parasite or virus in culture; conditions: Severe acute respiratory syndrome coronavirus, Vero C1008, read-out: Anti-SARS CoV IC50
SARS CoV [3] = assay: in vitro; conditions: African green monkey
in vitro = conditions: African green monkey

SMILES	reduction of levels of CPEs caused by SARS CoV infection (in words) (SARS CoV [1])	cytotoxicity per se (in words) (Vero E6 cells)	IC50 (SARS CoV [2]) [nM]	selectivity ratio (SARS CoV [3])	CC50 (in vitro) [nM]	melting point [°C]
COc1cc2c3c(c4cc(OC)c(OC)cc4c2cc1OC)CN1CCCC1C3 (stereo not drawn) [Compound 1]	effectively reduced	low cytotoxicity	18	23.3	420	–
COc1cc2c3c(c4cc(OC)c(OC)cc4c2cc1OC)CN1CCCCC1C3 (stereo not drawn) [Compound 11]	effectively reduced	low cytotoxicity	–	–	–	–
COc1cc2c3c(c4cc(OC)c(OC)cc4c2cc1OC)C(O)C1CCCCN1C3 (stereo not drawn) [Compound 12]	–	–	14	> 7.1	> 100	–
COc1cc2c3c(c4cc(OC)c(OC)cc4c2cc1OC)C[N+]1([O-])CCCCC1C3 (stereo not drawn) [Compound 18]	–	–	< 100	> 56	–	–
COc1cc2c3cc(OC)c(OC)cc3c3c[n+]4c(cc3c2cc1OC)CCCC4.[Br-] [Compound 19]	effectively reduced	low cytotoxicity	–	–	–	–
COc1ccc2c3c(c4cc(OC)c(OC)cc4c2c1)CN1CCCC1C3OC(C)=O (stereo not drawn) [Compound 32]	–	–	–	–	–	196 to 198
